This is an account of results in patent US5214056A, “1,3,2-dioxathiolane oxide derivative” (Japan Tobacco Inc., priority 1989, dated 1993).

Experiment [1] addresses T1, Purified calpain (CANP) sampled from a rat brain (Rattus norvegicus, UniProt Q07009).
T1 construct: sampled from a rat brain; from tissue; host or cells: rat brain
T1 sequence (Q07009 1-700): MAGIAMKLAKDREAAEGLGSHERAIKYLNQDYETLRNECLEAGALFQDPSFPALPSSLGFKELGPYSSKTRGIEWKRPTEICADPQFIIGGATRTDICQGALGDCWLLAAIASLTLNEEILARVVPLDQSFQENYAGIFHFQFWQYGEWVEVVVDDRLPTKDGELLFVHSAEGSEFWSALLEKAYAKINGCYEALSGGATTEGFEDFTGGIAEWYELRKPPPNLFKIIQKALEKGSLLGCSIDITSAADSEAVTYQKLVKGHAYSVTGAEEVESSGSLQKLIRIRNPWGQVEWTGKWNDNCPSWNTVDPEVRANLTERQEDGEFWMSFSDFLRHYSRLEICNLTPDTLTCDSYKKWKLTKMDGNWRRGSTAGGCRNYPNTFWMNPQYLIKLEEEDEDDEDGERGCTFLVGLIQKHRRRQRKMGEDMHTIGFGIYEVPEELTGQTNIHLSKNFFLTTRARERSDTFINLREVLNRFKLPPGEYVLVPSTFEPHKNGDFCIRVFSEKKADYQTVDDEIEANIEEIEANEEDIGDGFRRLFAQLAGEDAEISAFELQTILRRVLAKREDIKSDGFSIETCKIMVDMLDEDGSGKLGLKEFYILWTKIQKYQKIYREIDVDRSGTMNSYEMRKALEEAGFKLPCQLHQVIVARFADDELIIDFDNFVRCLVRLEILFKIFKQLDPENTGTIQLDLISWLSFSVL
T1 sequence (Q64537 1-270 partner): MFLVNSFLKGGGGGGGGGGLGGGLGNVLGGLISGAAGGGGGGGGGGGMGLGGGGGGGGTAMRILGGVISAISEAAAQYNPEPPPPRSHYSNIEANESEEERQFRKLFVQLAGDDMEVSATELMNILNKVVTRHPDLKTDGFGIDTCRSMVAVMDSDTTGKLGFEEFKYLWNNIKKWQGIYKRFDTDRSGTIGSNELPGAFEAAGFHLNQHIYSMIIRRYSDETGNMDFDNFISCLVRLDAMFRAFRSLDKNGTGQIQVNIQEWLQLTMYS
The experiment can be described thus: CANP inhibition activity in in vitro system. Type of experiment: biochemical. The conditions noted are these: N,N-dimethylcasein substrate, 30° C. for 20 minutes, pH 7.4, read-out: 50% inhibition concentration IC50. The procedure: A solution mixture consisting of the following com-ponents was prepared.
A 167-mM Tris hydrochloric acid buffer solution (pH=7.4) (containing 15-mM mercaptoethanol); 40 μl
A solution obtained by dissolving the compound [I] of the present invention in the same Tris hydrochloric acid buffer solution as described above; 40 μl
Purified calpain [obtained by a method described in J. Biol. Chem., 239, 149 (1964)] sampled from a rat brain and dissolved in a 50-mM sodium acetic acid buffer solution (pH=6.0; containing 1-mM EDTA and 5-mM mercaptoethanol) 11 units/ml; 200 μl
An N,N-dimethylcasein solution (pH=7.0)
40 μl of a 167-mM Tris hydrochloric acid buffer solution (pH=7.4) containing 50-mM CaCl2 were added to the above solution mixture, and the resultant solution was incubated at 30° C. for 20 minutes. After the incubation, 320 μl of 10% (W/V) trichloroacetic acid were added to stop the reaction, and the resultant solution was left to stand in an ice bath for one hour. Thereafter, the solution was subjected to centrifugal separation (16,100×g, five minutes), and 600 μl of the supernatant were sampled to measure absorbance (a1) at 280 nm.
In another step, absorbance (a2) was obtained by performing an experiment and measurement following the same procedures as described above except that a 167-mM Tris hydrochloric acid buffer solution (pH=7.4; containing 15-mM mercaptoethanol) was used in place of the 167-mM Tris hydrochloric acid buffer solution containing the compound of the present invention. In addition, absorbance (a3) was obtained by performing an experiment and measurement following the same procedures as described above except that a 167-mM Tris hydrochloric acid buffer solution (pH=7.4; containing 1-mM EDTA) was used in place of the 167-mM tris buffer solution (pH=7.4) containing 50-mM CaCl2.
An inhibition ratio was calculated from the above absorbance values (a1), (a2), and (a3) in accordance with the following equation: [formula]
In addition, a concentration (IC50) required for 50% inhibition was calculated by using a semilogarithmical graph.

The target of a further experiment is T2, cathepsin B (Bos taurus, UniProt P07688).
T2 construct: purchased Sigma Co
The experiment can be described thus: Cathepsin B inhibition activity in in-vitro system. It is filed as biochemical. The conditions noted are these: cathepsin B (Sigma), benzoyl-(phenylalanyl-alginyl)-4-methyl-coumarinamide substrate, pH 6.0, 30° C. for 20 minutes; read-out: 50% inhibition concentration IC50. The protocol: In this experiment, a 100-mM sodium phosphate buffer solution (pH=6.0; containing 1.33-mM EDTA Na2) was used as the buffer solutions for solution preparation.
A solution mixture consisting of the following components was prepared.
The above buffer solution; 850 μl
A 20-μM solution obtained by dissolving the compound of the present invention in the above buffer solution; 50 μl
A solution obtained by dissolving cathepsin B (available from Sigma Co.) in the above buffer solution to have a concentration of 0.5 mg/ml; 50 μl
50 μl of a 200-μM solution obtained by dissolving benzoyl-(phenylalanyl-alginyl)-4-methyl-coumarinamide in the above buffer solution were added to the above solution mixture, and the resultant solution was incubated at 30° C. for 20 minutes.
After the incubation, the reaction solution mixture was cooled in an ice bath to stop the reaction. After 20 minutes elapsed, the fluorescence intensity (b1) at an excitation wavelength of 370 nm and an emission wavelength of 440 nm was measured. At the same time, an experiment was performed using the above buffer solution in place of the solution of cathepsin B in the above system, and fluorescence intensity (b2) was measured following the same procedures as described above. In addition, an experiment was performed using the above buffer solution in place of the buffer solution of the compound of the present invention, and fluorescence intensity (b3) was measured following the same procedures as described above.
An inhibition ratio was calculated in accordance with the following equation: [formula] and a concentration (IC50) required for 50% inhibition was calculated by using a semilogarithmical graph.

Structures are written as SMILES.

Take `CCOC(=O)[C@H]1OS(=O)(=O)O[C@@H]1C(=O)N[C@@H](CC(C)C)C(=O)NCCC(C)C` [Example 4, Ethyl (4S,5S)-5-[(S)-3-methyl-1-(3-methylbutylcarbamoyl)butylcarbamoyl]-1,3,2-dioxathiolane-4-carboxylate-2,2-dioxide]: the IC50 in experiment [1] worked out at 15000 nM; on cathepsin B, 25 nM.

As to `CC(C)CCNC(=O)[C@H](CC(C)C)NC(=O)[C@H]1OS(=O)(=O)O[C@@H]1C(=O)OCc1ccccc1` [Example 11, Benzyl (4S,5S)-5-[(S)-3-methyl-1-(3-methylbutylcarbamoyl)butylcarbamoyl]-1,3,2-dioxathiolane-4-carboxylate-2,2-dioxide], the figures for the IC50 (in experiment [1]; at cathepsin B) were 6000 nM and 9 nM, respectively.

On to `CC(C)CCNC(=O)[C@H](CC(C)C)NC(=O)[C@H]1OS(=O)(=O)O[C@@H]1C(=O)O` [Example 12, (4S,5S)-5[(S)-3-methyl-1-(3-methylbutylcarbamoyl)butylcarbamoyl]-1,3,2-dioxathiolane-4-carboxy-2,2-dioxide], for which the IC50 in experiment [1] amounted to 300 nM; at cathepsin B, 0.7 nM.

Regarding `CCCCN(CCCC)C(=O)[C@H](CC(C)C)NC(=O)[C@H]1OS(=O)(=O)O[C@@H]1C(=O)OCC` [Example 14], the IC50 on cathepsin B stood at 15 nM.

Regarding `CCOC(=O)[C@H]1OS(=O)(=O)O[C@@H]1C(=O)N[C@@H](CC(C)C)C(=O)NCc1ccccc1` [Example 16, Ethyl (4S,5S)-5-[(S)-1-benzylcarbamoyl-3-methylbutylcarbamoyl]-1,3,2-dioxathiolane-4-carboxylate-2,2-dioxide], at cathepsin B, the IC50 is 3 nM.

Regarding `CC(C)CC(NC(=O)C1OC1C(=O)O)C(=O)NCCCCNC(=N)N` (stereo not shown) [Example E-64, E-64, reference compound], the figures for the IC50 (in experiment [1]; at cathepsin B) were 7000 nM and 35 nM, respectively.
